Test system: γ-secretase
Assay: Cellular γ-secretase assay (inhibition of Aβ42 secretion, AlphaLisa)
Type: cell-based
Conditions: Human neuroglioma H4 cells overexpressing human APP695 Swedish double mutation; 24 hr compound incubation; secreted Aβ42 in supernatant
Procedure: Cellular γ-Secretase Assay
Human neuroglioma H4 cells overexpressing human APP695 with the Swedish double mutation (K595N/M596L) were plated at 30,000 cells/well/100 μl in 96-well plates in IMDM media containing 10% FCS, 0.2 mg/l Hygromycin B and incubated at 37° C., 5% CO2.
3-4 hr post plating, compounds are a diluted in media and 50 μl is added as 1.5-fold concentrate to achieve the final concentration. Compound incubation is performed for 24 hr. Final doses typically range from 4 μM down to 0.0013 μM in half-log steps resulting in a eight point dose response curve.
Appropriate controls using vehicle only and reference compound were applied to this assay. The final concentration of Me2SO was 0.4%.
After incubation at 37° C., 5% CO2, the supernatant was subjected to quantification of secreted Aβ42 by the means of an AlphaLisa assay kit (Human Amyloid beta 1-42 Kit: Cat # AL203C, Perkin Elmer). 20 μl of the cell culture supernatant was transferred to an assay plate. Then 10 μl of a mixture of the AlphaLisa coupled capture antibody and the biotinylated detection antibody was added and incubated for 3 hours at room temperature while softly shaking the assay plate. After a further addition of 20 μl of the Donor beads the assay plate was incubated for 30 min at room temperature and constant shaking without exposure to direct light.
The assay plate was then read on a Paradigm AlphaLisa Reader using the build-in program with excitation at 680 nm and emission at […].
The measured signals were then used to calculate IC50 values for inhibition of Aβ42 secretion by nonlinear regression fit analysis using XLfit 5.3 software (IDBS).

EC50 [nM] | SMILES
35.6 | Cc1cc(N2C[C@H]3CC[C@@H](C2)[C@@H]3Nc2nc3n(n2)CCN3c2ccc(F)c(F)c2)ncn1 [Example 5, 4-(3,4-difluorophenyl)-N-[(1R,5S,8S)-3-(6-methylpyrimidin-4-yl)-3-azabicyclo[3.2.1]octan-8-yl]-5,6-dihydroimidazo[1,2-b][1,2,4]triazol-2-amine]
26.4 | Cc1cc(N2C[C@H]3CC[C@@H](C2)[C@@H]3Nc2nc3n(n2)CCCN3c2ccc(F)c(F)c2)ncn1 [Example 3, 4-(3,4-difluorophenyl)-N-[(1R,5S,8S)-3-(6-methylpyrimidin-4-yl)-3-azabicyclo[3.2.1]octan-8-yl]-6,7-dihydro-5H-[1,2,4]triazolo[1,5-a]pyrimidin-2-amine]
14.7 | COc1cc(N2C[C@H]3CC[C@@H](C2)[C@@H]3Nc2nc3n(n2)CCCN3c2ccc(F)c(F)c2)ccn1 [Example 21, 4-(3,4-difluorophenyl)-N-[(1R,5S,8S)-3-(2-methoxy-4-pyridyl)-3-azabicyclo[3.2.1]octan-8-yl]-6,7-dihydro-5H-[1,2,4]triazolo[1,5-a]pyrimidin-2-amine]
